This passage reports IC50 results from BindingDB's records for doi:10.1074/jbc.M113.476473 (Uppsala University, 2013).

In assay [1] the target is T1, Pantothenate kinase (Mycobacterium tuberculosis (strain ATCC 25618 / H37Rv), UniProt P9WPA7).
T1 sequence (P9WPA7 whole entry): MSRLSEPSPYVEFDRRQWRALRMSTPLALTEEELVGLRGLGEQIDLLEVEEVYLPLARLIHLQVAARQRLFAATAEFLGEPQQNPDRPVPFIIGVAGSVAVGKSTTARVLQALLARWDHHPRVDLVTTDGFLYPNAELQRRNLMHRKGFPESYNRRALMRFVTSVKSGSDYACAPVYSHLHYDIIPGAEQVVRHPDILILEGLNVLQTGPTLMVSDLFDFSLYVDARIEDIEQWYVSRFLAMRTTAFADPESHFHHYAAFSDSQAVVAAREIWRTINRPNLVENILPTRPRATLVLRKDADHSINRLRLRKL
Kind of assay: Biochemical Assay (ATP at 50x Km). The procedure:
Briefly, MtPanK activity was measured in a pyruvate kinaselactate dehydrogenase-coupled assay where the reaction rate was determined by spectrophotometric measurement of NADH consumption. A second set of IC50 measurements were performed with the ATP concentration at 50× Km, to determine the effect of cofactor competition.

The target of assay [2] is T1, Pantothenate kinase. Kind of assay: Biochemical Assay (ATP at Km). The procedure:
Briefly, MtPanK activity was measured in a pyruvate kinaselactate dehydrogenase-coupled assay where the reaction rate was determined by spectrophotometric measurement of NADH consumption. IC50 measurements were performed with a suitable concentration range of inhibitory compound, while keeping the concentration of pantothenate and ATP at 122 and 395 µM, respectively, which is their respective Km.

One may read the IC50 as the midpoint of a concentration-inhibition curve. Turning to `N#Cc1ccc(-c2ccc(COC(=O)O)cc2CN2CCN(c3ccccn3)CC2)cc1` [Biaryl 2a], the figures for the IC50 on Pantothenate kinase [1] and on Pantothenate kinase [2] were 130 nM and 120 nM, respectively.
Turning to `N#Cc1ccc(-c2ccc(OCC(N)=O)cc2CN2CCN(c3ccccn3)CC2)cc1` [Biaryl 2b], the IC50 at Pantothenate kinase [2] was 550 nM.
For `CC(NC(=O)c1ccccc1C(F)(F)F)c1nnc(SCCOc2ccc(F)cc2)n1C` (stereo not given) [Triazole 1a], the IC50 on Pantothenate kinase [1] stood at 5500 nM; against Pantothenate kinase [2], 90 nM.
In the same order, the values of `CC(NC(=O)c1ccccc1Cl)c1nnc(SCCOc2ccc(F)cc2)n1C` (stereo not given) [Triazole 1b] are over 12500 nM and 1130 nM.
In the same order, the values of `CC(NC(=O)c1ccccc1C(F)(F)F)c1nnc(SCc2ccc(F)cc2)n1C` (stereo not given) [Triazole 1c] are 10400 nM and 150 nM.
In the same order, the values of `Cc1ccccc1OCCSc1nnc(C(C)NC(=O)c2ccccc2C(F)(F)F)n1C` (stereo not given) [Triazole 1d] are 2820 nM and 140 nM.
Consider `CC(NC(=O)c1ccccc1C(F)(F)F)c1nnc(SCCOc2ccc(F)cc2)n1Cc1ccc(F)cc1` (stereo not given) [Triazole 1e], for which the IC50 against Pantothenate kinase [1] worked out at 690 nM; at Pantothenate kinase [2], 50 nM.
In the same order, the values of `CC(NC(=O)c1c(F)cccc1F)c1nnc(SCCOc2ccc(F)cc2)n1C` (stereo not given) [Triazole 1f] are 14000 nM and 1090 nM.
